In US11976074B1, “Crystalline salts of Linsitinib” (Sling Therapeutics, Inc., priority 2023, dated 2024):
Converted amounts (≈) assume the structure as drawn.

What was measured:
[1] = pH-solubility of linsitinib free base and selected salts (pH 1.5 to 6.5, overnight equilibration, HPLC); assay type: physicochemical; conditions: for solubility: aqueous solution, thermodynamic from solid, overnight equilibration, read-out: Solubility; for Final pH: after overnight equilibration
Protocol: The pH-solubility of selected salts (Phosphate 1, L-Malate 1, Esylate 1, and Esylate 2) was evaluated and compared with linsitinib free base. The solubility analysis was conducted in a manner consistent with a previous study that was performed with linsitinib free base. Aqueous solutions were prepared between pH 1.5 and pH 6.5 in 0.5 pH unit increments via titration of the solution using NaOH and HCl. For each salt or the free base, an attempt was made to reach saturation in each of the solutions by adding sufficient material to the solution such that excess solids remained. If saturation was achieved, the pH of the solution was measured and adjusted to the target pH and additional material was added if needed. The samples were then equilibrated overnight. The final pH of the solution was measured, the solids were filtered and selected samples were analyzed by PXRD. The concentration of linsitinib in the filtrate was quantitated by HPLC (diluted as needed). In some cases, significant drift (+1 pH unit or more) of the final pH from the target pH was observed after the overnight equilibration.
The pH-solubility data is shown graphically in FIG. 89. […] Indeed, it should be noted that in the majority of the low pH systems, higher initial dissolution/solubility was observed followed by precipitation of the material from solution upon longer equilibration.

[2] = Equilibrium solubility in bio-relevant media (FaSSGF pH 1.6, FaSSIF pH 6.5); assay type: physicochemical; conditions: for Solubility compared with the free base: in words; for solubility: thermodynamic from solid, read-out: Solubility
From the text: In addition to the pH-solubility data, a comparison of the equilibrium solubility of linsitinib free base and salts in two bio-relevant media (Table 28), fasted state simulated gastric fluid (FaSSGF pH 1.6) and intestinal fluid (FaSSIF pH 6.5) was completed. […] A saturated solution of Esylate 1 was not achieved during this study and therefore the equilibrium solubility could be higher than determined. It should be noted that variability of almost a full pH unit was noted among the samples making a direct comparison more challenging.

[3] = Water activity boundary between malate forms; assay type: physicochemical; conditions: or 90% relative humidity
Protocol: Malate 2, Malate 4, and Malate 5 were all obtained from high water activity conditions and are suspected to be hydrated forms. Based on the weight loss in the TG thermograms of Malate 4 and Malate 5, they could be di-hydrates. The water activity boundary between Malate 4 and Malate 1 was determined to be approximately 0.9 water activity, or 90% relative humidity. At a water activity of 0.8, Malate 1 was obtained; however, there were additional peaks present by PXRD. […]

[4] = cited from earlier work
[5] = cited from earlier work; remark: listed apart in the source
[6] = Heating experiments with selected malate samples; assay type: physicochemical
Protocol: Based on the thermal data, Malate 4 and Malate 5 were heated at […] for 15 minutes. The solids were re-analyzed by PXRD after heating to investigate any form change upon dehydration. […] While there was an insufficient amount of sample to further characterize Malate 7, based on the conditions upon which it was generated, it could be a lower hydrate or an anhydrous form.

[7] = Thermogravimetric analysis (TGA); assay type: physicochemical; conditions: start to 65° C.
Protocol: The TG analysis was carried out using a TA Instruments […] Discovery Series instrument. The instrument balance was calibrated using class M weights and the temperature calibration was performed using alumel. The nitrogen purge was 10 mL per minute at the balance and 25 mL per minute at the furnace. The sample was placed into a pre-tared platinum pan and heated from approximately 25° C. to 300° C. at a rate of 10° C. per minute.

[8] = Polymorph screen of linsitinib malate (PXRD/XRPD result); assay type: physicochemical; conditions: polymorph screen of linsitinib malate; slurry, cooling, precipitation or lyophilization; solvent and conditions per sample no.; listed as 4-10
Protocol: A Rigaku SmartLab X-Ray Diffractometer was configured in Bragg-Brentano reflection geometry equipped with a beam stop and knife edge to reduce incident beam and air scatter.
A polymorph screen of linsitinib malate was conducted. Experiments were designed to target thermodynamically stable forms and therefore utilized techniques such as long-term slurry, cooling, anti-solvent addition, and evaporation. Reaction crystallization experiments with linsitinib free base and L-malic acid were also conducted. Additionally, non-crystalline material was used as an alternative starting material as this can provide access to polymorphs that would not be accessible from crystalline starting material.

[9] = pH 4, aqueous buffer, target pH 4.0, * = clear solution, not equilibrium value
[10] = pH 4.5, aqueous buffer, target pH 4.5, * = clear solution, not equilibrium value
[11] = pH 5, aqueous buffer, target pH 5.0
[12] = pH 5.5, aqueous buffer, target pH 5.5
[13] = pH 6, aqueous buffer, target pH 6.0
[14] = pH 6.5, aqueous buffer, target pH 6.5
[15] = pH adjusted with NaOH and HCl, pH 1.5, aqueous buffer, target pH 1.5, * = clear solution, not equilibrium value
[16] = pH adjusted with NaOH and HCl, pH 2, aqueous buffer, target pH 2.0, * = clear solution, not equilibrium value
[17] = pH adjusted with NaOH and HCl, pH 2.5, aqueous buffer, target pH 2.5, * = clear solution, not equilibrium value
[18] = pH adjusted with NaOH and HCl, pH 3, aqueous buffer, target pH 3.0, * = clear solution, not equilibrium value
[19] = pH adjusted with NaOH and HCl, pH 3.5, aqueous buffer, target pH 3.5, * = clear solution, not equilibrium value
[20] = fasted state simulated gastric fluid (FaSSGF), pH 1.6, fassgf or other biorelevant, FaSSGF (pH 1.6)
[21] = fasted state simulated intestinal fluid (FaSSIF), pH 6.5, fassif, FaSSIF (pH 6.5)

| solubility [1, 9] | solubility [1, 10] | solubility [1, 11] | solubility [1, 12] | solubility [1, 13] | solubility [1, 14] | solubility [1, 15] | solubility [1, 16] | solubility [1, 17] | solubility [1, 18] | solubility [1, 19] | Final pH ([1]; target pH 1.5) | Final pH ([1]; target pH 2.0) | Final pH ([1]; target pH 2.5) | Final pH ([1]; target pH 3.0) | Final pH ([1]; target pH 3.5) | Final pH ([1]; target pH 4.0) | Final pH ([1]; target pH 4.5) | Final pH ([1]; target pH 5.0) | Final pH ([1]; target pH 5.5) | SMILES | further results |
| --- | --- | --- | --- | --- | --- | --- | --- | --- | --- | --- | --- | --- | --- | --- | --- | --- | --- | --- | --- | --- | --- |
| 1340 µg/mL | 337 µg/mL | 274 µg/mL | 192 µg/mL | 122 µg/mL | 16.5 µg/mL | 82300 µg/mL | 74000 µg/mL | 39000 µg/mL | 15300 µg/mL | 4290 µg/mL | 1.45 | 2.02 | 2.37 | 2.80 | 3.08 | 3.38 | 5.05 | 5.16 | 5.32 | C[C@]1(O)C[C@@H](c2nc(-c3ccc4ccc(-c5ccccc5)nc4c3)c3c(N)nccn32)C1.O=C(O)C[C@H](O)C(=O)O [L-Malate 1] | Solubility compared with the free base or Phosphate 1 ([1]; lower pH (<3)): significantly higher solubility; Final pH ([1]; target pH 6.0): 5.50; Final pH ([1]; target pH 6.5): 5.18; Final pH ([2]; FaSSGF (pH 1.6)): 2.97; Solubility compared with the free base ([2]; FaSSGF (pH 1.6)): largely comparable; Final pH ([2]; FaSSIF (pH 6.5)): 5.46; Solubility compared with the free base ([2]; FaSSIF (pH 6.5)): higher solubility than the free base; solubility [2, 20]: 8130 µg/mL; solubility [2, 21]: 44 µg/mL; Water activity boundary between Malate 4 and Malate 1 [3]: approximately 0.9 water activity |
| 116 µg/mL | 5.1 µg/mL | 1.2 µg/mL | 1.7 µg/mL | 1 µg/mL | 1.2 µg/mL | 54000 µg/mL | 23600 µg/mL | 17600 µg/mL | 15000 µg/mL | 1730 µg/mL | 1.52 | 2.04 | 2.33 | 2.76 | 3.64 | 4.18 | 5.54 | 6.18 | 6.43 | C[C@]1(O)C[C@@H](c2nc(-c3ccc4ccc(-c5ccccc5)nc4c3)c3c(N)nccn32)C1 [Linsitinib free base, Cis-3-[8-amino-1-(2-phenyl-7-quinolinyl)imidazo[1,5-a]pyrazin-3-yl]-1-methyl-cyclobutanol, reference compound] | Final pH ([1]; target pH 6.0): 7.02; Final pH ([1]; target pH 6.5): 6.43; Final pH ([2]; FaSSGF (pH 1.6)): 4.04; Final pH ([2]; FaSSIF (pH 6.5)): 6.57; solubility [2, 20]: 7670 µg/mL (≈ 18.2 mM); solubility [2, 21]: 25 µg/mL (≈ 0.0593 mM); Hygroscopicity ([4]; anhydrous/non-solvated free base form): non-hygroscopic; Solubility under acidic conditions [4]: good solubility; Permeability [5]: good permeability |
|  |  |  |  |  |  |  |  |  |  |  |  |  |  |  |  |  |  |  |  | C[C@]1(O)C[C@@H](c2nc(-c3ccc4ccc(-c5ccccc5)nc4c3)c3c(N)nccn32)C1.O=C(O)C[C@H](O)C(=O)O [Malate 4] | XRPD result after heating ([6]; 92° C., 15 min): Malate 7; Form change upon heating (PXRD) ([6]; heated for 15 minutes): dehydrate to a new form, designated as Malate 7; Water activity boundary between Malate 4 and Malate 1 [3]: approximately 0.9 water activity; TGA Results (weight loss) [7]: 7.3%, start to 65 °C; PXRD Results [8]: Malate 4 |
